Data: patent US9487500B2, “Compounds and compositions thereof” (Inhibikase Therapeutics, Inc., priority 2012, dated 2016)

Test system: K562 cells
Assay: MTS cell viability assay (K562 cell line)
Type: cell-based
Conditions: Homo sapiens, 48 hr
Description: K562 cells were the first human immortalised myelogenous leukemia line to be established. K562 cells are of the erythroleukemia type, and the line is derived from a CML patient. The cells are non-adherent and rounded, are positive for the bcr:abl fusion gene.
K562 cell line is maintained in RPMI1640 with 10% fetal Bovine Serum. 2500 cells/well of K562 cells were plated in 96 well tissue culture plate. Cells were incubated for 48 hours with serially diluted compound (final concentration from 20 μM-0.002 μM) for 48 hr. MTS (3-(4,5-dimethylthiazol-2-yl)-5-(3-carboxymethoxyphenyl)-2-(4-sulfophenyl)-2H-tetrazolium), obtained from Promega was added to the wells and plates were incubated at […] in 5% CO2 for 4 hrs. The MTS compound is bio-reduced by cells into a colored formazan product that is soluble in tissue culture medium. The quantity of formazan product as measured by the amount of 490 nm absorbance is directly proportional to the number of living cells in culture. The absorbance was read at 490 nm (Spectramax microplate reader). The Percentage inhibition was calculated and plotted against the concentration of inhibitor and data was fit to Non Linear Regression curve fit (sigmoidal dose response curve with variable slope-four parameters) using Graph pad prism 5.

SMILES	inhibition at 0.2 µM [%]	inhibition at 2 µM [%]	inhibition at 20 µM [%]
Cc1ccc(NC(=O)c2ccc(CN3CC[N+](C)(COC(=O)N[C@H](C)c4ccccc4)CC3)cc2)cc1Nc1nccc(-c2cccnc2)n1 [Compound 1011, (R)-1-methyl-4-(4-((4-methyl-3-((4-(pyridin-3-yl)pyrimidin-2-yl)amino)phenyl)carbamoyl)benzyl)-1-((((1-phenylethyl)carbamoyl)oxy)methyl)piperazin-1-ium iodide]	45	63	70
CCC(C)(C)OC(=O)OC[N+]1(C)CCN(Cc2ccc(C(=O)Nc3ccc(C)c(Nc4nccc(-c5cccnc5)n4)c3)cc2)CC1 [Compound 1028, 1-methyl-4-(4-(4-methyl-3-(4-(pyridin-3-yl)pyrimidin-2-ylamino)phenylcarbamoyl)benzyl)-1-((tert-pentyloxycarbonyloxy)methyl)piperazin-1-ium iodide]	40	63	76
Cc1ccc(NC(=O)c2ccc(CN3CCN(C)CC3)cc2)cc1Nc1nccc(-c2cccnc2)n1 [imatinib, 4-[(4-methylpiperazin-1-yl)methyl]-N-(4-methyl-3-{[4-(pyridin-3-yl)pyrimidin-2-yl]amino}phenyl)benzamide, reference compound]	48	64	67
